Test results from patent US20180346525A1, “DIAGNOSTIC AND THERAPEUTIC QUORUM-SENSING-MANIPULATION MOLECULES THAT ARE TRACKABLE FOR HEALTH-CARE AND INDUSTRIAL SYSTEMS” (The Trustees of Princeton University, priority 2017, published 2018).

Tested on: S. aureus Agr QS (AgrC-I/AgrA, agrP3 promoter)
Experiment: Agr QS fluorescence reporter (agrP3-mkate2) in S. aureus reporter strain
Assay type: cell-based, Staphylococcus aureus
Conditions: FIG. 3
Description: FIG. 1 illustrates the Agr QS responses of S. aureus to exogenously supplied agonists and antagonists or conjugates of those compounds attached to detectable moieties. To follow the QS status of S. aureus cells, confocal microscopy and an S. aureus reporter strain that produced the fluorescent protein mKate2 in response to exogenous addition of AIP-I was used. The reporter strain was a ΔagrBDCA ΔRNAIII S. aureus mutant harboring agrCA driven by the native agrP2 promoter. […] The plasmid also harbored the Agr-activated agrP3 promoter fused to mkate2. […] This QS response was repressed by the administration of AIP-II. […] However, once the cells detected the exogenous autoinducers, the cells produced mKate2 (red fluorescent protein). […]
Transcription from fluorescence reporter genes was measured in S. aureus strain MK242. […] Using a Synergy 2 plate reader (Biotek, Winooski, Vt.), GFPmut2 and mKate2 levels were measured at 484 nm/528 nm and 588 nm/633 nm, respectively. […]
Imaging was performed using a Nikon Eclipse Ti inverted microscope (Melville, N.Y.) fitted with a Yokogawa CSU X-1 confocal spinning disk scanning unit (Biovision Technologies, Exton, Pa.) and DU-897 X-9351 camera (Andor, Concord, Mass.). […] In the area of an individual cell, both the constitutive GFPmut2 fluorescence and the QS controlled mKate2 fluorescence were measured, subtracted from background signals and summed. […]

AIP-I
mKate2 production in the reporter strain (1 μM compound alone): produced | Specific binding to AgrC receptors, indicated by AIP-II competition: specifically bind to AgrC receptors
